Patent publication US20090181989A1, “Purine Compunds as HSP90 Protein Inhibitors for the Treatment of Cancer” (VERNALIS ( R & D) LTD., priority 2005, published 2009)
pIC50: −log10 of the molar value.

Target: T1, human full-length HSP90 (Homo sapiens, UniProt P08238)
T1 construct: E. coli expressed human full-length HSP90 protein; made in house; host or cells: E. coli
Test: Fluorescence polarization assay (competitive displacement of fluorescein-labelled probe VER00051001-FAM from HSP90)
Type: binding
Details: activity range in the fluorescence polarization assay; E. coli expressed human full-length HSP90 200 nM, probe 80 nM
Excerpt: Fluorescence Polarization Assay
Fluorescence polarization {also known as fluorescence anisotropy} measures the rotation of a fluorescing species in solution, where the larger molecule the more polarized the fluorescence emission. When the fluorophore is excited with polarized light, the emitted light is also polarized. The molecular size is proportional to the polarization of the fluorescence emission.
The fluoroscein-labelled probe-VER00051001-FAM-
binds to HSP90 {full-length human, full-length yeast or N-terminal domain HSP90} and the anisotropy {rotation of the probe:protein complex} is measured.
Test compound is added to the assay plate, left to equilibrate and the anisotropy measured again. Any change in anisotropy is due to competitive binding of compound to HSP90, thereby releasing probe.
Chemicals are of the highest purity commercially available and all aqueous solutions are made up in AR water. • 1) Costar 96-well black assay plate #3915 • 2) Assay buffer of (a) 100 mM Tris pH7.4; (b) 20 mM KCl; (c) 6 mM MgCl2. Stored at room temperature. • 3) BSA (bovine serum albumen) 10 mg/ml (New England Biolabs # B9001S) • 4) 20 mM probe in 100% DMSO stock concentration. Stored in the dark at RT. Working concentration is 200 nM diluted in AR water and stored at 4° C. Final concentration in assay 80 nM. • 5) E. coli expressed human full-length HSP90 protein, purified >95% (see, e.g., Panaretou et al., 1998) and stored in 50 μL aliquots at −80° C.
• 1) Add 100 μl 1× buffer to wells 11A and 12A(═FPBLNK) • 2) Prepare assay mix—all reagents are kept on ice with a lid on the bucket as the probe is light-sensitive.
• 3) Aliquot 100 μl assay mix to all other wells • 4) Seal plate and leave in dark at room temp for 20 minutes to equilibrate Compound Dilution Plate—1×3 dilution series • 1) In a clear 96-well v-bottom plate—{# VWR 007/008/257} add 10 μl 100% DMSO to wells B1 to H11 • 2) To wells A1 to A11 add 17.5 μl 100% DMSO • 3) Add 2.5 μl cpd to A1. This gives 2.5 mM {50×} stock cpd—assuming cpds 20 mM. • 4) Repeat for wells A2 to A10. Control in columns 11 and 12. • 5) Transfer 5 μl from row A to row B- not column 12. Mix well. • 6) Transfer 5 μl from row B to row C. […] In column 11 {provides standard curve} only add compound B11-H11. Add 2 μl of 100 mM standard cpd to wells B12-H12 {is positive control} • 13) The Z′ factor is calculated from zero controls and positive wells. It typically gives a value of 0.7-0.9.
The compounds tested in the above assay were assigned to one of two activity ranges, namely A=<10 μM; B=>10 μM, and those assignments are reported above.

T1 sequence (P08238 whole entry): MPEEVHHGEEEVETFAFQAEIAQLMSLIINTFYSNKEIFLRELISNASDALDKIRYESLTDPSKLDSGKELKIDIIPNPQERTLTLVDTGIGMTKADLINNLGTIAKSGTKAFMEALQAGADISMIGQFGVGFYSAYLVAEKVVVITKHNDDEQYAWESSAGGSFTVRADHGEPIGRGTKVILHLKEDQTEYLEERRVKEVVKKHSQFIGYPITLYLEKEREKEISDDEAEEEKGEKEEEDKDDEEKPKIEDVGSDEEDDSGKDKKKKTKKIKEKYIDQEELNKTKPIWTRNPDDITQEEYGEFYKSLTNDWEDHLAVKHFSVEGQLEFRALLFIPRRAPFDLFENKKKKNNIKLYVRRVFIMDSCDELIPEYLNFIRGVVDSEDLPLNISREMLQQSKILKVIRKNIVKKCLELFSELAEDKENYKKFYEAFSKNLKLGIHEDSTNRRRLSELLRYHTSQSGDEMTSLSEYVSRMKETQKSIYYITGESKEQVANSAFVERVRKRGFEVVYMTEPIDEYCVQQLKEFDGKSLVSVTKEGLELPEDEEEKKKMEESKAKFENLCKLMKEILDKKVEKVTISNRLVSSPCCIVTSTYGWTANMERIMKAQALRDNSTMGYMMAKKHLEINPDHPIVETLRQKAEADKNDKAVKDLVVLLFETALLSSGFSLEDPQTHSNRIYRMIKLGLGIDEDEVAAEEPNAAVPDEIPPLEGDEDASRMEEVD

Row | pIC50 | SMILES
1 | > 5.00 | Clc1ccc(-c2nc(Sc3nc[nH]n3)nc3[nH]cnc23)c(Cl)c1 [Example 18]
2 | > 5.00 | CSc1nc(-c2ccc(Cl)cc2C)c2nc[nH]c2n1 [Example 19]
3 | > 5.00 | CCOC(=O)CSc1nc(-c2ccc(Cl)cc2Cl)c2nc[nH]c2n1 [Example 20]
4 | < 5.00 | CCNC(=O)C(C)(C)Sc1nc(-c2ccc(Cl)cc2Cl)c2nc[nH]c2n1 [Example 21]
5 | > 5.00 | CN(C)CCSc1nc(-c2ccc(Cl)cc2Cl)c2nc[nH]c2n1 [Example 22]
6 | > 5.00 | COc1nc(-c2ccc(Cl)cc2Cl)c2nc[nH]c2n1 [Example 23, 6-(2,4-Dichloro-phenyl)-2-methoxy-9H-purine]
7 | > 5.00 | CCN(CC)Cc1ccc(COc2cc(-c3nc(Cl)nc4[nH]cnc34)c(Cl)cc2Cl)cc1 [Example 24, {4-[2,4-Dichloro-5-(2-chloro-9H-purin-6-yl)-phenoxymethyl]-benzyl}-diethyl-amine]
8 | < 5.00 | CS(=O)(=O)c1nc(-c2ccc(Cl)cc2Cl)c2nc[nH]c2n1 [Example 25, 6-(2,4-Dichloro-phenyl)-2-methanesulfonyl-7H-purine]
9 | < 5.00 | C[S+]([O-])c1nc(-c2ccc(Cl)cc2Cl)c2nc[nH]c2n1 (stereo not drawn) [Example 26, 6-(2,4-Dichloro-phenyl)-2-methanesulfinyl-7H-purine]
10 | > 5.00 | Cc1cc(Cl)c(-c2nc(Cl)nc3[nH]cnc23)cc1O [Example 27, 4-Chloro-5-(2-chloro-9H-puriny-6-yl)-2-methyl-phenol]
11 | > 5.00 | CCN(CC)CCOc1cc(-c2nc(Cl)nc3[nH]cnc23)c(Cl)cc1C [Example 28, {2-[4-Chloro-5-(2-chloro-9H-purin-6-yl)-2-methyl-phenoxy]-ethyl}-diethyl-amine]
12 | > 5.00 | CCN(CC)CCOc1cc(-c2nc(SC)nc3[nH]cnc23)c(Cl)cc1C [Example 29, {2-[4-Chloro-2-methyl-5-(2-methylsulfanyl-9H-purin-6-yl)-phenoxy]-ethyl}-diethyl-amine]
13 | > 5.00 | CCNC(=O)CSc1nc(-c2cc(OCCN(CC)CC)c(C)cc2Cl)c2nc[nH]c2n1 [Example 30, 2-{6-[2-Chloro-5-(2-diethlamino-ethoxy)-4-methyl-phenyl]-9H-purin-2-ylsulfanyl}-N-ethyl Acetamide]
14 | < 5.00 | CSc1nc(-c2ccc(C)cc2C)c2nc(Cl)[nH]c2n1 [Example 31, 8-Chloro-6-(2,4-dimethyl-phenyl)-2-methylsulfanyl-9H-purine]
15 | < 5.00 | CSc1nc(-c2ccc(C)cc2C)c2nc(C)[nH]c2n1 [Example 32, 6-(2,4-Dimethyl-phenyl)-8-methyl-2-methylsulfanyl-9H-purine]
16 | < 5.00 | CSc1nc(-c2ccc(C)cc2C)c2nc(C#N)[nH]c2n1 [Example 33, 6-(2,4-Dimethyl-phenyl)-2-methylsulfanyl-9H-purine-8-carbonitrile]
17 | > 5.00 | CN(C)CCCOc1cc(-c2nc(Cl)nc3[nH]cnc23)c(Cl)cc1Cl [Example 34, {3-[2,4-Dichloro-5-(2-chloro-9H-purin-6-yl)-phenoxy]-propyl}-dimethyl-amine]
18 | > 5.00 | CCN(CC)CCOc1cc(-c2nc(Cl)nc3[nH]cnc23)c(Cl)cc1Cl [Example 35, {2-[2,4-Dichloro-5-(2-chloro-9H-purin-6-yl)-phenoxy]-ethyl}-diethyl-amine]
19 | > 5.00 | Clc1nc(-c2cc(OCCN3CCCC3)c(Cl)cc2Cl)c2nc[nH]c2n1 [Example 36, 2-Chloro-6-[2,4-dichloro-5-(2-pyrrolidin-1-yl-ethoxy)-phenyl]-9H-purine]
20 | > 5.00 | O=C1CCCN1CCOc1cc(-c2nc(Cl)nc3[nH]cnc23)c(Cl)cc1Cl [Example 37, 1-{2-[2,4-Dichloro-5-(2-chloro-9H-purin-6-yl)-phenoxy]-ethyl}-pyrrolidin-2-one]

The next lines start with the compound.

Row | SMILES | pIC50
21 | Clc1ccc(-c2nc(Cl)nc3[nH]cnc23)c(Cl)c1 [Example 1, 2-Chloro-6-(2,4-dichloro-phenyl)-9H-purine] | > 5.00
22 | Clc1nc(-c2cc(OCc3ccccc3)c(Cl)cc2Cl)c2nc[nH]c2n1 [Example 2, 6-(5-Benzyloxy-2,4-dichloro-phenyl)-2-chloro-9H-purine] | > 5.00
23 | Cc1ccc(-c2nc(Cl)nc3[nH]cnc23)c(C)c1 [Example 3] | > 5.00
24 | Cc1ccc(-c2nc(Cl)nc3[nH]cnc23)c2ccccc12 [Example 4] | < 5.00
25 | Clc1nc(-c2ccc3c(c2)CCO3)c2nc[nH]c2n1 [Example 5] | < 5.00
26 | N#Cc1ccc(-c2nc(Cl)nc3[nH]cnc23)cc1 [Example 6] | > 5.00
27 | Cc1ccc(-c2nc(Cl)nc3[nH]cnc23)c(Cl)c1 [Example 8] | > 5.00
28 | Cc1cc(Cl)ccc1-c1nc(Cl)nc2[nH]cnc12 [Example 9] | > 5.00
29 | Cc1cc(F)ccc1-c1nc(Cl)nc2[nH]cnc12 [Example 10] | > 5.00
30 | Clc1nc(-c2ccccc2)c2nc[nH]c2n1 [Example 11] | > 5.00
31 | CSc1nc(-c2cc(OCc3ccccc3)c(Cl)cc2Cl)c2nc[nH]c2n1 [Example 12, 6-(5-benzyloxy-2,4-dichloro-phenyl)-2-methylsulfanyl-9H-purine] | > 5.00
32 | CSc1nc(-c2ccc(C#N)cc2)c2nc[nH]c2n1 [Example 13, 6-(4-cyano-phenyl)-2-methylsulfanyl-9H-purine] | > 5.00
33 | CSc1nc(-c2ccc(Cl)cc2Cl)c2nc[nH]c2n1 [Example 14, 6-(2,4-dichloro-phenyl)-2-methylsulfanyl-9H-purine] | > 5.00
34 | CSc1nc(-c2ccc(F)cc2C)c2nc[nH]c2n1 [Example 15, 6-(2-methyl-4-fluoro-phenyl)-2-methylsulfanyl-9H-purine] | > 5.00
35 | CCNC(=O)CSc1nc(-c2ccc(Cl)cc2Cl)c2nc[nH]c2n1 [Example 16] | > 5.00
36 | CSc1nc(-c2ccc3ccccc3c2)c2nc[nH]c2n1 [Example 17] | < 5.00
